For 24 compounds, EC50 results are on record in patent US20230108906A1, “SUBSTITUTED BICYCLIC AND TRICYCLIC UREAS AND AMIDES, ANALOGUES THEREOF, AND METHODS USING SAME” (Arbutus Biopharma Corporation, priority 2019, published 2023).

Where only a bound is given, the exact number is not on record here.

For one experiment, the system named is HBV rcDNA in HepDE19 cells. In words: HepDE19 assay with bDNA quantitation of HBV rcDNA. In kind it is cell-based, hepatitis B virus (HBV). The settings on record: Hepatitis B virus, HepDE19, 168 h, inhibition of rcDNA formation in HepDE19 cells (HepG2 derived), Tet-free medium, 7 day incubation, Quantigene 2.0 bDNA readout, top concentration 25 μM; read-out: DE-19bDNA EC50. The procedure: HepDE19 Assay with bDNA Quantitation of HBV rcDNA:
HepDE19 cell culture system is a HepG2 (human hepatocarcinoma) derived cell line that supports HBV DNA replication and cccDNA formation in a tetracycline (Tet)-regulated manner and produces HBV rcDNA and a detectable reporter molecule dependent on the production and maintenance of cccDNA (Guo, et al., 2007, J. Virol. 81:12472-12484).
HepDE19 (50,000 cells/well) were plated in 96-well collagen-coated tissue-culture treated microtiter plates in DMEM/F12 medium supplemented with 10% fetal bovine serum, 1% penicillin-streptomycin and 1 μg/mL tetracycline and incubated in a humidified incubator at 37° C. and 5% CO2 overnight. Next day, the cells were switched to fresh medium without tetracycline and incubated for 4 hours at 37° C. and 5% CO2. The cells were treated with fresh Tet-free medium with compounds at concentrations starting at 25 μM and a serial, […], 8-point, titration series in duplicate. The final DMSO concentration in the assay was 0.5%. The plates were incubated for 7 days in a humidified incubator at 37° C. and 5% CO2. Following a 7 day-incubation, the level of rcDNA present in the inhibitor-treated wells was measured using a Quantigene 2.0 bDNA assay kit (Affymetrix, Santa Clara, Calif.) with HBV specific custom probe set and manufacturers instructions. Concurrently, the effect of compounds on cell viability was assessed using replicate plates, plated at a density of 5,000 cells/well and incubated for 4 days, to determine the ATP content as a measure of cell viability using the cell-titer glo reagent (CTG; Promega Corporation, Madison, Wis.) as per manufacturer's instructions. The plates were read using a Victor luminescence plate reader (PerkinElmer Model 1420 Multilabel counter) and the relative luminescence units (RLU) data generated from each well was calculated as % inhibition of the untreated control wells and analyzed using XL-Fit module in Microsoft Excel to determine EC50 and EC90 (bDNA) and CC50 (CTG) values using a 4-parameter curve fitting algorithm.
Representative compounds of the disclosure were tested for their abilities to inhibit formation of relaxed circular DNA (rcDNA) in a HepDE19 assay, as described elsewhere herein.
The term EC50 denotes the midpoint of the concentration-response curve. In the case of `O=C(Nc1ccc(F)c(Cl)c1)N(CCCO)C1CCCc2[nH]c(=O)c3ccccc3c21` (stereo not drawn) [Compound 7, 3-(3-Chloro-4-fluorophenyl)-1-(3-hydroxypropyl)-1-(6-oxo-1,2,3,4,5,6-hexahydrophenanthridin-1-yl)urea], the EC50 was determined as 750 nM. `CN(C(=O)Nc1ccc(F)c(Cl)c1)[C@H]1COCc2[nH]c(=O)c3cc(F)c(F)cc3c21` (single isomer, unassigned) [Compound 71]: the EC50 came to 210 nM. In the case of `CN(C(=O)Nc1ccc(F)c(C(F)F)c1)C1COCc2[nH]c(=O)c3cc(F)ccc3c21` (stereo not drawn) [Compound 124, 3-(3-(Difluoromethyl)-4-fluorophenyl)-1-(8-fluoro-6-oxo-1,4,5,6-tetrahydro-2H-pyrano[3,4-c]isoquinolin-1-yl)-1-methylurea], the EC50 was 10 nM. In the case of `Cc1cc(NC(=O)N(C)[C@@H]2COCc3[nH]c(=O)c4cc(F)c(F)cc4c32)ccc1F` (single isomer, unassigned) [Compound 69], the EC50 is 10 nM. Same read-out and setting: in the case of `CN(C(=O)Nc1ccc(F)c(Cl)c1)C1CCCc2[nH]c(=O)c3c(c21)COCC3` (single isomer, unassigned) [Compound 79, 3-(3-Chloro-4-fluorophenyl)-1-methyl-1-(5-oxo-3,4,5,6,7,8,9,10-octahydro-1H-pyrano[4,3-c]quinolin-10-yl)urea] it was at least 25000 nM; in that of `CN(C(=O)Nc1ccc(O)c(Cl)c1)[C@@H]1COCc2[nH]c(=O)c3cc(F)c(F)cc3c21` [Compound 148, (S)-3-(3-Chloro-4-hydroxyphenyl)-1-(8,9-difluoro-6-oxo-1,4,5,6-tetrahydro-2H-pyrano[3,4-c]isoquinolin-1-yl)-1-methylurea], 760 nM.

Consider `CN(C(=O)Nc1ccc(F)c(Cl)c1)C1COCc2[nH]c(=O)c3cc(F)cc(F)c3c21` (stereo not drawn) [Compound 25, 3-(3-Chloro-4-fluorophenyl)-1-(8,10-difluoro-6-oxo-1,4,5,6-tetrahydro-2H-pyrano[3,4-c]isoquinolin-1-yl)-1-methylurea], for which the EC50 stood at 290 nM. On the same count and under the same terms, in the case of `CC(C)CN(C(=O)Nc1ccc(F)c(Cl)c1)C1CCCc2[nH]c(=O)cc(C(F)(F)F)c21` (stereo not drawn) [Compound 1, 3-(3-Chloro-4-fluorophenyl)-1-isobutyl-1-(2-oxo-4-(trifluoromethyl)-1,2,5,6,7,8-hexahydroquinolin-5-yl)urea] it was 520 nM. Turning to `CN(C(=O)Nc1cc(F)c(F)c(F)c1)C1CCCc2[nH]c(=O)c3cc(F)ccc3c21` (stereo not drawn) [Compound 33, 1-(8-Fluoro-6-oxo-1,2,3,4,5,6-hexahydrophenanthridin-1-yl)-1-methyl-3-(3,4,5-trifluorophenyl)urea], the EC50 amounted to 100 nM.

Still in this experiment, the particulars now being: inhibition of rcDNA formation in HepDE19 cells (HepG2 derived), Tet-free medium, 7 day incubation, Quantigene 2.0 bDNA readout, top concentration 25 μM; read-out: DE-19bDNA EC50.
As for `CC(C)CN(C(=O)Nc1cc(F)c(F)c(F)c1)C1COCc2[nH]c(=O)c3cc(F)ccc3c21` (single isomer, unassigned) [Compound 114, 1-(8-Fluoro-6-oxo-2,4,5,6-tetrahydro-1H-pyrano[3,4-c]isoquinolin-1-yl)-1-isobutyl-3-(3,4,5-trifluorophenyl)urea], the EC50 was 410 nM. Same read-out and setting: the value for `CN(C(=O)Nc1ccc(F)c(Cl)c1)C1CS(=O)(=O)Cc2[nH]c(=O)c3cc(F)ccc3c21` (single isomer, unassigned) [Compound 198, 3-(3-Chloro-4-fluorophenyl)-1-(8-fluoro-3,3-dioxido-6-oxo-1,4,5,6-tetrahydro-2H-thiopyrano[3,4-c]isoquinolin-1-yl)-1-methylurea] was 3700 nM; that for `CN(C(=O)Nc1ccc(F)c(C#N)c1)C1C[S+]([O-])Cc2[nH]c(=O)c3cc(F)c(F)cc3c21` (single isomer, unassigned) [Compound 213, 3-(3-Cyano-4-fluorophenyl)-1-(8,9-difluoro-3-oxido-6-oxo-1,4,5,6-tetrahydro-2H-thiopyrano[3,4-c]isoquinolin-1-yl)-1-methylurea] was 1000 nM; that for `CC(C)CN(C(=O)Nc1ccc(F)c(C#N)c1)C1COCc2[nH]c(=O)c3cc(F)c(F)cc3c21` (single isomer, unassigned) [Compound 121, 3-(3-Cyano-4-fluorophenyl)-1-(8,9-difluoro-6-oxo-1,4,5,6-tetrahydro-2H-pyrano[3,4-c]isoquinolin-1-yl)-1-isobutylurea] was 10 nM. Turning to `CCN(C(=O)Nc1ccc(F)c(Cl)c1)C1CCCc2[nH]c(=O)c3c(c21)CCCC3` (single isomer, unassigned) [Compound 54, 3-(3-Chloro-4-fluorophenyl)-1-ethyl-1-(6-oxo-1,2,3,4,5,6,7,8,9,10-decahydrophenanthridin-1-yl)urea], the EC50 was 30 nM. On to `CN(C(=O)Nc1ccc(F)c(Cl)c1)C1C[S+]([O-])Cc2[nH]c(=O)c3cc(F)ccc3c21` (single isomer, unassigned) [Compound 194, 3-(3-Chloro-4-fluorophenyl)-1-(8-fluoro-3-oxido-6-oxo-1,4,5,6-tetrahydro-2H-thiopyrano[3,4-c]isoquinolin-1-yl)-1-methylurea], for which the EC50 was at least 25000 nM. In the case of `CN(C(=O)Nc1ccc(F)c(Cl)c1)C1CCCc2[nH]c(=O)c3c(c21)CCCC3` (single isomer, unassigned) [Compound 46, 3-(3-Chloro-4-fluorophenyl)-1-methyl-1-(6-oxo-1,2,3,4,5,6,7,8,9,10-decahydrophenanthridin-1-yl)urea], the concentration giving a half-maximal response (EC50) amounted to 1200 nM. Same read-out and setting: in the case of `CN1Cc2[nH]c(=O)c3cc(F)c(F)cc3c2C(N(C)C(=O)Nc2ccc(F)c(Cl)c2)C1` (single isomer, unassigned) [Compound 168, 3-(3-Chloro-4-fluorophenyl)-1-(8,9-difluoro-3-methyl-6-oxo-1,2,3,4,5,6-hexahydrobenzo[c][1,7]naphthyridin-1-yl)-1-methylurea] it was 180 nM. The same measure, in the same setting: the value for `CN(C(=O)Nc1ccc(F)c(Cl)c1)C1CN(CCO)Cc2[nH]c(=O)c3cc(F)c(F)cc3c21` (single isomer, unassigned) [Compound 180, 3-(3-Chloro-4-fluorophenyl)-1-(8,9-difluoro-3-(2-hydroxyethyl)-6-oxo-1,2,3,4,5,6-hexahydrobenzo[c][1,7]naphthyridin-1-yl)-1-methylurea] was 1400 nM; that for `CN(C(=O)Nc1ccc(F)cc1)C1COCc2[nH]c(=O)c3cc(F)c(F)cc3c21` (single isomer, unassigned) [Compound 104, 1-(8,9-Difluoro-6-oxo-1,4,5,6-tetrahydro-2H-pyrano[3,4-c]isoquinolin-1-yl)-3-(4-fluorophenyl)-1-methylurea] was 20 nM. Regarding `CC(=O)N1Cc2[nH]c(=O)c3cc(F)ccc3c2C(N(C)C(=O)Nc2ccc(F)c(Cl)c2)C1` (single isomer, unassigned) [Compound 158, 1-(3-Acetyl-8-fluoro-6-oxo-1,2,3,4,5,6-hexahydrobenzo[c][1,7]naphthyridin-1-yl)-3-(3-chloro-4-fluorophenyl)-1-methylurea], the concentration for a half-maximal effect (EC50) was determined as 2300 nM. On the same count and under the same terms, in the case of `CN(C(=O)N1Cc2ccc(F)cc2C1)C1CNCc2[nH]c(=O)c3cc(F)c(F)cc3c21` (single isomer, unassigned) [Compound 225, N-(8,9-Difluoro-6-oxo-1,2,3,4,5,6-hexahydrobenzo[c][1,7]naphthyridin-1-yl)-5-fluoro-N-methylisoindoline-2-carboxamide] it was 3400 nM; in that of `CC(=O)N1Cc2[nH]c(=O)c3cc(F)ccc3c2C(N(C)C(=O)Nc2ccc(F)c(C#N)c2)C1` (single isomer, unassigned) [Compound 166, 1-(3-Acetyl-8-fluoro-6-oxo-1,2,3,4,5,6-hexahydrobenzo[c][1,7]naphthyridin-1-yl)-3-(3-cyano-4-fluorophenyl)-1-methylurea], 11000 nM; in that of `CN(C(=O)Nc1ccc(F)c(F)c1)C1CCCc2[nH]c(=O)c3c(c21)CCCC3` (single isomer, unassigned) [Compound 48, 3-(3,4-Difluorophenyl)-1-methyl-1-(6-oxo-1,2,3,4,5,6,7,8,9,10-decahydrophenanthridin-1-yl)urea], 3100 nM.

Staying with this experiment, now noted: read-out: DE-19bDNA EC50; inhibition of rcDNA formation in HepDE19 cells (HepG2 derived), Tet-free medium, 7 day incubation, Quantigene 2.0 bDNA readout, top concentration 25 μM.
As for `CN(C(=O)Nc1ccccc1)C1COCc2[nH]c(=O)c3cc(F)c(F)cc3c21` (single isomer, unassigned) [Compound 101, 1-(8,9-Difluoro-6-oxo-1,4,5,6-tetrahydro-2H-pyrano[3,4-c]isoquinolin-1-yl)-1-methyl-3-phenylurea], the EC50 stood at 4700 nM.
